Here are results for 26 compounds from the supplement of paper PMC10627819.

For the test, the system named is S. aureus DSM 20231. Description: Bliss interaction score (quartile over a dose matrix) (fitness difference); higher = more antagonism (negative = synergy). The procedure, abridged: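 OD595 was read at entry into stationary phase and expressed relative to the robust mean of the no-drug wells on the same plate, capped at 1. The resulting ratio is the fitness value. The Bliss score, observed fitness minus product-based expected fitness with single-drug fitness inferred from combinations, is summarised by quartiles over technical, biological and donor/recipient replicates.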
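Further: first quartile when negative (synergy) and third quartile when positive (antagonism).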

Regarding `Cc1ccc(-c2cc(C(F)(F)F)nn2-c2ccc(S(N)(=O)=O)cc2)cc1` [Celecoxib] + CC[C@H]1OC(=O)[C@H](C)C(=O)[C@H](C)[C@@H](O[C@@H]2O[C@H](C)C[C@H](N(C)C)[C@H]2O)[C@](C)(OC)C[C@@H](C)C(=O)[C@H](C)[C@H]2N(CCCCn3cnc(-c4cccnc4)c3)C(=O)O[C@]12C [Telithromycin], the Bliss interaction score was -0.162.

With `Cc1ccc(-c2cc(C(F)(F)F)nn2-c2ccc(S(N)(=O)=O)cc2)cc1` [Celecoxib] + CN(C)C(=O)C(CCN1CCC(O)(c2ccc(Cl)cc2)CC1)(c1ccccc1)c1ccccc1 [Loperamide], the Bliss interaction score is -0.452. The value for `CCCSc1nc(N[C@@H]2C[C@H]2c2ccc(F)c(F)c2)c2nnn([C@@H]3C[C@H](OCCO)[C@@H](O)[C@H]3O)c2n1` [Ticagrelor] + COc1cc(Cc2cnc(N)nc2N)cc(OC)c1OC [Trimethoprim] was -0.152; that for `C[C@H]1COc2c(N3CCN(C)CC3)c(F)cc3c(=O)c(C(=O)O)cn1c23` [Levofloxacin] + Cc1c(Cl)cccc1Nc1ccccc1C(=O)O [Tolfenamic] was -0.164; that for `CN(C)C(=O)C(CCN1CCC(O)(c2ccc(Cl)cc2)CC1)(c1ccccc1)c1ccccc1` [Loperamide] + CN1CCN(C2=Nc3ccccc3Oc3ccc(Cl)cc32)CC1 [Loxapine] was 0.122.

As to `CCCSc1nc(N[C@@H]2C[C@H]2c2ccc(F)c(F)c2)c2nnn([C@@H]3C[C@H](OCCO)[C@@H](O)[C@H]3O)c2n1` [Ticagrelor] + CN[C@H](CC(C)C)C(=O)N[C@H]1C(=O)N[C@@H](CC(N)=O)C(=O)N[C@H]2C(=O)N[C@H]3C(=O)N[C@H](C(=O)N[C@H](C(=O)O)c4cc(O)cc(O)c4-c4cc3ccc4O)[C@H](O)c3ccc(c(Cl)c3)Oc3cc2cc(c3O[C@@H]2O[C@H](CO)[C@@H](O)[C@H](O)[C@H]2O[C@H]2C[C@](C)(N)[C@H](O)[C@H](C)O2)Oc2ccc(cc2Cl)[C@H]1O [Vancomycin], the Bliss interaction score came out at 0.257. `CC1(C)S[C@@H]2[C@H](NC(=O)[C@H](N)c3ccc(O)cc3)C(=O)N2[C@H]1C(=O)O` [Amoxicillin] + O=C(O)c1cc(-c2ccc(F)cc2F)ccc1O [Diflunisal]: the Bliss interaction score amounted to 0.204. Next, `CCCSc1nc(N[C@@H]2C[C@H]2c2ccc(F)c(F)c2)c2nnn([C@@H]3C[C@H](OCCO)[C@@H](O)[C@H]3O)c2n1` [Ticagrelor] + Oc1cc(Cl)ccc1Oc1ccc(Cl)cc1Cl [Triclosan]: 0.247.

As for `CC1(C)S[C@@H]2[C@H](NC(=O)[C@H](N)c3ccc(O)cc3)C(=O)N2[C@H]1C(=O)O` [Amoxicillin] + CC/C(=C(\c1ccccc1)c1ccc(OCCN(C)C)cc1)c1ccccc1 [Tamoxifene], the Bliss interaction score is -0.148. Next, `C[C@]12CC[C@@H]3c4ccc(O)cc4CC[C@H]3[C@@H]1CC[C@@H]2O` [Estradiol] + CC[C@H]1OC(=O)[C@H](C)C(=O)[C@H](C)[C@@H](O[C@@H]2O[C@H](C)C[C@H](N(C)C)[C@H]2O)[C@](C)(OC)C[C@@H](C)C(=O)[C@H](C)[C@H]2N(CCCCn3cnc(-c4cccnc4)c3)C(=O)O[C@]12C [Telithromycin]: 0.268; `CN(C)C(=O)C(CCN1CCC(O)(c2ccc(Cl)cc2)CC1)(c1ccccc1)c1ccccc1` [Loperamide] + CC(C)(O)c1ccccc1CC[C@@H](SCC1(CC(=O)O)CC1)c1cccc(/C=C/c2ccc3ccc(Cl)cc3n2)c1 [Montelukast]: -0.28; `CN(C)C(=O)C(CCN1CCC(O)(c2ccc(Cl)cc2)CC1)(c1ccccc1)c1ccccc1` [Loperamide] + CCCSc1nc(N[C@@H]2C[C@H]2c2ccc(F)c(F)c2)c2nnn([C@@H]3C[C@H](OCCO)[C@@H](O)[C@H]3O)c2n1 [Ticagrelor]: -0.453.

In the case of `C[C@]12CC[C@@H]3c4ccc(O)cc4CC[C@H]3[C@@H]1CC[C@@H]2O` [Estradiol] + CC1(C)S[C@@H]2[C@H](NC(=O)Cc3ccccc3)C(=O)N2[C@H]1C(=O)O [PenicillinG], the Bliss interaction score amounted to 0.255. As to `CC1(C)S[C@@H]2[C@H](NC(=O)[C@H](N)c3ccc(O)cc3)C(=O)N2[C@H]1C(=O)O` [Amoxicillin] + CC(=O)Oc1cccc2c1C(=O)c1c(OC(C)=O)cc(C(=O)O)cc1C2=O [Diacerein], the Bliss interaction score is -0.192. The value for `CN(C)C(=O)C(CCN1CCC(O)(c2ccc(Cl)cc2)CC1)(c1ccccc1)c1ccccc1` [Loperamide] + CCOC(=O)N1CCC(=C2c3ccc(Cl)cc3CCc3cccnc32)CC1 [Loratadine] was -0.278; that for `CC1(C)S[C@@H]2[C@H](NC(=O)[C@H](N)c3ccc(O)cc3)C(=O)N2[C@H]1C(=O)O` [Amoxicillin] + CCN(CC)CCOc1ccc(C(=C(Cl)c2ccccc2)c2ccccc2)cc1 [Clomiphene] was -0.255; that for `CN(C)C(=O)C(CCN1CCC(O)(c2ccc(Cl)cc2)CC1)(c1ccccc1)c1ccccc1` [Loperamide] + CN(Cc1cnc2nc(N)nc(N)c2n1)c1ccc(C(=O)N[C@@H](CCC(=O)O)C(=O)O)cc1 [Methotrexate] was -0.309. The value for `CCN(CC)C(=O)/C(C#N)=C/c1cc(O)c(O)c([N+](=O)[O-])c1` [Entacapone] + CO[C@@]12[C@H](COC(N)=O)C3=C(C(=O)C(C)=C(N)C3=O)N1C[C@@H]1N[C@@H]12 [MitomycinC] was 0.176; that for `CC1(C)S[C@@H]2[C@H](NC(=O)[C@H](N)c3ccc(O)cc3)C(=O)N2[C@H]1C(=O)O` [Amoxicillin] + Cc1ccc(-c2cc(C(F)(F)F)nn2-c2ccc(S(N)(=O)=O)cc2)cc1 [Celecoxib] was 0.185. On to `CCCSc1nc(N[C@@H]2C[C@H]2c2ccc(F)c(F)c2)c2nnn([C@@H]3C[C@H](OCCO)[C@@H](O)[C@H]3O)c2n1` [Ticagrelor] + CN(C)c1cc(NC(=O)CNC(C)(C)C)c(O)c2c1C[C@H]1C[C@H]3[C@H](N(C)C)C(O)=C(C(N)=O)C(=O)[C@@]3(O)C(O)=C1C2=O [Tigecycline], for which the Bliss interaction score was found to be 0.216. On to `CCN(CC)C(=O)/C(C#N)=C/c1cc(O)c(O)c([N+](=O)[O-])c1` [Entacapone] + CC(=O)NC[C@H]1CN(c2ccc(N3CCOCC3)c(F)c2)C(=O)O1 [Linezolid], for which the Bliss interaction score was -0.178. As for `CCN(CC)C(=O)/C(C#N)=C/c1cc(O)c(O)c([N+](=O)[O-])c1` [Entacapone] + CN1C2=CC=CC=C2N=C3C1=CC=CC3=O [Pyocyanin], the Bliss interaction score is -0.283. The value for `CCCSc1nc(N[C@@H]2C[C@H]2c2ccc(F)c(F)c2)c2nnn([C@@H]3C[C@H](OCCO)[C@@H](O)[C@H]3O)c2n1` [Ticagrelor] + CC1=C\[C@@H](O)CC(=O)Cc2nc(co2)C(=O)N2CCC=C2C(=O)O[C@H](C(C)C)[C@H](C)/C=C/C(=O)NC\C=C\1 [Virginiamycin M1] was 0.253; that for `CN(C)C(=O)C(CCN1CCC(O)(c2ccc(Cl)cc2)CC1)(c1ccccc1)c1ccccc1` [Loperamide] + O=C(O)Cc1cc(I)c(Oc2ccc(O)c(I)c2)c(I)c1 [Tiratricol] was 0.751; that for `C[C@]12CC[C@@H]3c4ccc(O)cc4CC[C@H]3[C@@H]1CC[C@@H]2O` [Estradiol] + CO[C@@]12[C@H](COC(N)=O)C3=C(C(=O)C(C)=C(N)C3=O)N1C[C@@H]1N[C@@H]12 [MitomycinC] was 0.179. As to `CN(C)C(=O)C(CCN1CCC(O)(c2ccc(Cl)cc2)CC1)(c1ccccc1)c1ccccc1` [Loperamide] + O=c1c(O)c(-c2ccc(O)c(O)c2)oc2cc(O)cc(O)c12 [Quercetin], the Bliss interaction score was 0.242.
